# Values quoted from earlier work, collected in patent US10434077B2, “Glycolic acid and/or D-lactic acid for the treatment of neurodegenerative diseases” (MAX-PLANCK-GESELLSCHAFT ZUR FOERDERUNG DER WISSENSCHAFTEN …, priority 2014, dated 2019).
# Details: toxicology study; cited from earlier work
structure (smiles),measurement,value
"CC(O)C(=O)O (stereo not shown) [lactic acid, 2-hydroxypropanoic acid]",amount declared as harmless,about 8 g/day
